Experimental data as given in patent EP0920487B1, “COMPOSITION AND METHOD FOR INHIBITING THE DEPOSITION OF PROTEIN ON CONTACT LENS” (BAUSCH & LOMB INCORPORATED, priority 1996, dated 1997).

Tested on: lysozyme
Test: SPE protein-binding inhibition screening (Sep-Pak Accell Plus CM solid-phase extraction cartridge, absorbance of eluent at 280 nm)
Design: species or system hen
Details: test compound 1% in BBS; then 0.05% lysozyme; corrected for BBS control
From the text: In another aspect of the present invention, selected polyquaternium polymers simultaneously satisfy the dual requirements of both (i) meeting ophthalmological safety standards for an in-the-eye contact-lens solution at concentrations of 1000 ppm and (ii) inhibiting protein binding to a contact lens. The safety requirements can be determined according to the so-called NRDR (neutral red dye release) assay for cytotoxicity described in the Examples. In particular, the polyquaternium polymer should have an NRDR assay rating of L or less at a level of 1000 ppm., preferably L or less at a level of 500 ppm (dry weight of polymer, correcting for water content of the available polymer material). […] The material in this extraction cartridge is a weak cation exchanger that contains a silica support coated with a polymer having carboxymethyl groups. This extraction cartridge is first treated with a 1.0% solution of the polyquaternium polymer in borate-buffered saline followed by exposing the solid phase extraction cartridge to 0.05% lysozyme. The amount of protein-binding inhibition is determined compared to a control solution. […] Preferably, the SPE protein-binding inhibition is at least 20%, more preferably at least 30%, most preferably at least 35%.
This Experiment illustrates the measurement of the protein-displacing effects of various polyquaternium polymers. Among the polyquaternium polymers tested, the polymers varied with respect to the comonomers making up the polymer, the respective proportion of comonomers, and/or the molecular weight of the polymer. The following screening procedure was used. […] The absorbance measurements were conducted by (1) taking an initial absorbance with BBS in a 1 cm cuvette, which reading should be 0.000, re-autozeroing if necessary with BBS, (2) rinsing and filling the cuvette with 0.05% lysozyme solution and reading the absorbance to obtain the "maximum inhibition value', and (3) reading the absorbances for the solutions in the test tubes used to collect the eluents from the test cartridges. […]

Point of comparison: “lauryl methyl gluceth-10 hydroxy-propyl dimonium chloride [Gluquat® 125]”, “Average % SPE Binding Inhibition” value 2%. Against it:
- benzalkonium chloride [BAK] — higher, 3%
- benzalkonium bromide [BAB] — higher, 8%
